SMILES strings stand for the structures.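 Cells were grown in 96-well plates and exposed to each compound for 48 hours at five concentrations; endpoints were interpolated linearly between bracketing concentrations, or set to the highest concentration if not reached. GI50 = concentration required for 50% inhibition of growth.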 The source made the active and inactive calls. Rule as the data show it: active = GI50 up to about 1.1 µM and inactive = higher.

Assay in all cases: growth of human tumour cells (NCI), 48 h
Assay [1] relates to MOLT-4.
Assay [2] concerns LOX IMVI.
Assay [3] concerns A498.
Assay [4] concerns SK-MEL-5.
Assay [5] relates to UACC-257.
Assay [6] deals with A549.
Assay [7] deals with RXF 393.
The subject of assay [8] is RPMI-8226.
Assay [9] concerns HT-29.
Assay [10] concerns SF-268.
Assay [11] has as its system SK-MEL-28.
Assay [12] concerns SR.
The subject of assay [13] is HOP-62.
In assay [14] the test system is K562.
Assay [15] concerns SF-539.
The test system of assay [16] is MDA-MB-231.
The subject of assay [17] is MDA-MB-435.
Assay [18] has as its system T47D.
Assay [19] has as its system SW-620.
The test system of assay [20] is MCF7.

In the case of `O=[N+]([O-])c1ccc(COc2cccc3cccnc23)cc1`, the GI50 in [1] was 4.98 µM (inactive); in assay [2] it was 11.7 µM (inactive); in [3] it was 34.8 µM (inactive); in assay [4], 17.1 µM (inactive); in assay [5], 20.2 µM (inactive); in assay [6], 31 µM (inactive). For the same molecule, the GI50 in assay [7] was 43.5 µM (inactive); in assay [8], 13 µM (inactive); in [9] it was 31.6 µM (inactive); in [10] it was 19.9 µM (inactive); in assay [11] it was 14.8 µM (inactive); in [12] it was 3.47 µM (inactive). In addition, the GI50 in assay [13] is 30 µM (inactive); in assay [14], 11.3 µM (inactive); in assay [15] it was 29.6 µM (inactive).
As for `Cc1cc(-c2ccc(C(=O)C(Cl)(Cl)Cl)[nH]2)on1`, the GI50 was 18 µM (inactive) in assay [16]; 20.5 µM (inactive) in [17]; 2.95 µM (inactive) in [1]; 24.9 µM (inactive) in assay [2]; 41.3 µM (inactive) in assay [3]; 32.8 µM (inactive) in [4]. In addition, the GI50 in assay [5] was 42.1 µM (inactive); in [6], 33.5 µM (inactive); in assay [7] it was 17.1 µM (inactive); in [8] it was 8.51 µM (inactive); in assay [9], 28.4 µM (inactive); in [10] it was 36.9 µM (inactive). Moreover, the GI50 in [11] is 31.4 µM (inactive); in assay [18], 52.2 µM (inactive); in assay [13], 11.4 µM (inactive); in [19], 50.6 µM (inactive); in [14], 18.3 µM (inactive); in assay [15], 15.3 µM (inactive).
Regarding `Nc1nc(N)c2nc(-c3ccco3)cnc2n1`, the GI50 in assay [1] was 44.5 µM (inactive); in assay [2], 30.9 µM (inactive); in assay [3], 42.2 µM (inactive); in assay [4] it was 52.5 µM (inactive); in assay [5] it was 92.7 µM (inactive); in assay [6] it was 34.5 µM (inactive). Also, the GI50 in [7] is 26.2 µM (inactive); in assay [8], > 100 µM (inactive); in assay [9] it was 76.7 µM (inactive); in assay [10], > 100 µM (inactive); in [11], 92 µM (inactive); in assay [12] it was 39.9 µM (inactive). Also, the GI50 is 35.6 µM (inactive) in assay [13], 33.7 µM (inactive) in assay [14] and 38.2 µM (inactive) in assay [15].
`CCOC(=O)c1c(N2CCCC2)ncn(Cc2ccccc2)c1=S`: the GI50 was > 100 µM (inactive) in assay [16]; > 100 µM (inactive) in [17]; 92.3 µM (inactive) in assay [1]; > 100 µM (inactive) in assay [2]; 49.4 µM (inactive) in assay [3]; 65.3 µM (inactive) in assay [4]. In addition, the GI50 in assay [5], in [6], in assay [7], in assay [8], in [9] and in assay [10] was > 100 µM (inactive) throughout. For the same molecule, the GI50 in assay [11] is > 100 µM (inactive); in assay [12] it was > 100 µM (inactive); in [18], 93.8 µM (inactive); in assay [13], > 100 µM (inactive); in assay [19] it was > 100 µM (inactive); in assay [14] it was 87.5 µM (inactive). Also, in assay [15], the GI50 was > 100 µM (inactive).
`CCOC(=O)CC1c2ccc(O)cc2OC(=O)C1c1ccc(N)cc1` (stereo not given): the GI50 in assay [16], in assay [17], in assay [1], in [2], in assay [3] and in assay [4] was > 100 µM (inactive) throughout. For the same molecule, the GI50 in [5] was > 100 µM (inactive); in assay [6], > 100 µM (inactive); in [7], > 100 µM (inactive); in assay [8], > 100 µM (inactive); in [9], > 100 µM (inactive); in [10], 98.4 µM (inactive). Moreover, the GI50 in assay [11] was > 100 µM (inactive); in assay [12], > 100 µM (inactive); in [13], 4.34 µM (inactive); in [19] it was > 100 µM (inactive); in assay [14], > 100 µM (inactive); in [20], > 100 µM (inactive). The GI50 in assay [15] is 56.6 µM (inactive).
Take `COC(=O)/C=C1\SC2(O\C1=N/c1ccccc1)C1CC3CC(C1)CC2C3` (stereo not given): the GI50 in assay [16], in assay [17], in [1], in assay [2], in [3] and in assay [4] was > 100 µM (inactive) in each case. Also, the GI50 in assay [5], in [6], in assay [7], in assay [8], in assay [9] and in assay [11] was > 100 µM (inactive) throughout. The GI50 in assay [12], in assay [13], in assay [19], in assay [14], in [20] and in assay [15] was > 100 µM (inactive) each time.
Turning to `COc1ccc(Cc2c3cc(OC)c(OC)cc3cc[n+]2C)cc1`, the GI50 in assay [1] was > 100 µM (inactive); in assay [2], > 14.2 µM (inactive); in [3], > 100 µM (inactive); in assay [4], 21.2 µM (inactive); in assay [5] it was 20.4 µM (inactive); in assay [6], 9.35 µM (inactive). In addition, the GI50 in [7] is > 25.6 µM (inactive); in assay [8] it was 24.5 µM (inactive); in assay [9], 13.4 µM (inactive); in [10], 4.7 µM (inactive); in assay [11] it was 32.6 µM (inactive); in assay [12] it was 2.2 µM (inactive). The GI50 was > 20.8 µM (inactive) in assay [13], > 100 µM (inactive) in [19], 34.4 µM (inactive) in assay [14] and 18.7 µM (inactive) in assay [15].
As for `NNC1=N/C(=C\c2ccccc2O)C(=O)N1`, the GI50 in assay [16] is 35.4 µM (inactive); in [17], 61.4 µM (inactive); in assay [1] it was 21.5 µM (inactive); in assay [2] it was 24.5 µM (inactive); in assay [3], > 100 µM (inactive); in [4] it was 35 µM (inactive). For the same molecule, the GI50 is 49.2 µM (inactive) in [5]; 30.9 µM (inactive) in assay [6]; 49.3 µM (inactive) in assay [7]; 24 µM (inactive) in assay [8]; 53.6 µM (inactive) in assay [9]; 31 µM (inactive) in assay [10]. The GI50 in assay [11] was 60.8 µM (inactive); in assay [18], 38.5 µM (inactive); in assay [13], 48.5 µM (inactive); in assay [19] it was 47.1 µM (inactive); in assay [14] it was 28.1 µM (inactive); in assay [15] it was 25.4 µM (inactive).
In the case of `COc1cc(C(=O)Nc2cc(C(N)=O)cc(OC)c2OC)cc(NC(=O)/C=C/c2ccccc2)c1OC`, the GI50 was 20 µM (inactive) in [16]; > 100 µM (inactive) in assay [17]; 52.4 µM (inactive) in [1]; > 100 µM (inactive) in assay [5]; > 100 µM (inactive) in [6]; > 100 µM (inactive) in assay [7]. Besides, the GI50 was 44 µM (inactive) in assay [8]; > 100 µM (inactive) in [9]; > 100 µM (inactive) in assay [11]; 20.4 µM (inactive) in [12]; > 100 µM (inactive) in assay [19]; > 100 µM (inactive) in assay [14]. Also, the GI50 in assay [20] and in assay [15] was > 100 µM (inactive) throughout.
Take `COC(=O)C(Cc1cn(C(C)n2cc(CC(NC(C)=O)C(=O)OC)c3ccccc32)c2ccccc12)NC(C)=O` (stereo not given): the GI50 is 44.5 µM (inactive) in [16]; > 100 µM (inactive) in assay [17]; 34 µM (inactive) in [1]; > 100 µM (inactive) in assay [3]; 73.3 µM (inactive) in [4]; > 100 µM (inactive) in assay [5]. The GI50 is > 100 µM (inactive) in assay [6]; 83.9 µM (inactive) in assay [8]; > 100 µM (inactive) in assay [9]; 48.1 µM (inactive) in [10]; > 100 µM (inactive) in assay [11]; 37.6 µM (inactive) in [12]. Also, the GI50 in [13] and in assay [19] was > 100 µM (inactive) throughout.
In the case of `O=Nc1c(-c2c(O)[nH]c3ccc(I)cc23)[nH]c2ccccc12`, the GI50 in assay [16] was 3.79 µM (inactive); in assay [17], 4.55 µM (inactive); in [2] it was 2.45 µM (inactive); in assay [4] it was 4.12 µM (inactive); in [5], > 31.5 µM (inactive); in assay [6], 3.27 µM (inactive). Moreover, the GI50 in assay [7] is 2.36 µM (inactive); in assay [8], 1.88 µM (inactive); in assay [9], 3.48 µM (inactive); in [10], 4.42 µM (inactive); in assay [11], 4.32 µM (inactive); in assay [20] it was 2.41 µM (inactive). The GI50 in assay [15] is 7.03 µM (inactive).
As for `COc1ccc2[nH]c3c(C)c4cc[n+](C)cc4c(C)c3c2c1`, the GI50 was 6.21 µM (inactive) in [2]; 1.18 µM (inactive) in assay [4]; 8.41 µM (inactive) in [5]; 0.798 µM (active) in assay [7]; 3.23 µM (inactive) in assay [9]; 0.148 µM (active) in assay [10]. The GI50 is 1.32 µM (inactive) in [11]; 0.358 µM (active) in [13]; 0.587 µM (active) in [19]; 2.16 µM (inactive) in assay [20]; 0.24 µM (active) in assay [15].

Values taken from ChEMBL document CHEMBL1201862, “PubChem BioAssay data set” (2004).
